Measurements: US7842700B2, “Crystals of isopropyl ester of N-(2,6-dichlorobenzoyl)-4-[6-(methylamino)methyl-1-methyl-2,4-dioxo-1,4-dihydroquinazoline-3(2H)-yl]-L-phenylalanine hydrochloride, production method thereof and use thereof” (Ajinomoto Co., Inc., priority 2005, dated 2010)

Legend:
[1] = system: lymphocytes in the peripheral blood; experiment: Activity to elevate the number of lymphocytes in the peripheral blood in a rat; assay type: in vivo; conditions: 30 mg/kg oral, male Wistar rats, 12 hours after administration, control = 100%
Protocol: Activity to Elevate the Number of Lymphocytes in the Peripheral Blood in a Rat
Therefore, the activity of the compound of the formula (I) to elevate the number of lymphocytes in the rat was examined.
The dosing solution was prepared by dissolving the compound of the formula (I) in dimethylsulfoxide, adding a mixed solution of polyethylene glycol 400: propylene glycol=1:1 thereto and turning it upside and down repeatedly. The final concentration of DMSO was adjusted to 2.5%.
The dosing solution of a test substance (30 mg/kg) was orally administered to male Wistar rats (6 to 8 weeks age) in the amount of 4 mL/kg. After the settled time points after the administration, the blood was drawn from the abdominal large vein under anesthesia and mixed in an EDTA-2K coated container for blood collection. Then, the number of lymphocytes in the peripheral blood was determined by an automated comprehensive hematology analyzer (SF-3000, Sysmex). The test was conducted in n=5, and the ratio (%) of the number of lymphocytes in the peripheral blood in a test substance-administered group to that in a vehicle-treated group (a control group) was calculated while the average value of the number of lymphocytes in the peripheral blood in a control group was determined to be 100%.

[2] = Powder X-ray diffraction measurement under the control of relative humidity; assay type: physicochemical; conditions: dry: 50° C. under reduced pressure; wet: 85% relative humidity
Protocol: Powder X-Ray Diffraction Measurement Under the Control of Relative Humidity
The powder X-ray diffraction of each of crystal form Cl5 and crystal form Mal2 was measured in the following condition, and the diffraction patterns between dry one and wet one were compared. However, there was no difference thereof in each crystal.
Drying condition (dry): measurement of a sample with drying it at 50° C. under reduced pressure
Humid condition (wet): measurement of a sample under 85% relative humidity
Powder diffractometer: RINT2100S by RIGAKU (and a temperature and humidity attachment for said diffractometer) Humidity generator: SRH-1R Shinei Co., Inc.

[3] = Preservation stability test; assay type: physicochemical; conditions: 4 weeks; 40° C./75% relative humidity opened, 60° C./opened, vs room temperature/closed control
Protocol: Preservation Stability Test
Crystal form Cl5, crystal form Br5 and crystal form A were preserved in the following condition, and then the amount of impurities in each sample was compared. However, the increase in the impurities by heating was not observed.
• 40° C./75% relative humidity—opened • 60° C./opened • Room temperature/closed (control)

SMILES | ratio (%) of the number of lymphocytes in the peripheral blood to that in a vehicle-treated group [1] [%] | difference of powder X-ray diffraction patterns between dry and wet [2] | increase in the impurities by heating [3]
CNCc1ccc2c(c1)c(=O)n(-c1ccc(C[C@H](NC(=O)c3c(Cl)cccc3Cl)C(=O)OC(C)C)cc1)c(=O)n2C [compound of the formula (I), isopropyl ester of N-(2,6-dichlorobenzoyl)-4-[6-(methylamino)methyl-1-methyl-2,4-dioxo-1,4-dihydroquinazoline-3(2H)-yl]-L-phenylalanine] | ≥ 150 |  | 
CNCc1ccc2c(c1)c(=O)n(-c1ccc(C[C@H](NC(=O)c3c(Cl)cccc3Cl)C(=O)OC(C)C)cc1)c(=O)n2C [crystal form Cl5] |  | no difference | not observed
